Experimental data: patent US6423730B1, “Method to control termites” (Dow AgroSciences LLC, priority 1999, dated 2002)

How the values were obtained:
Reticulitermes = test: AWPA E1-97 treated southern yellow pine wood block termite test; assay type: in vivo; details: treated southern yellow pine wood blocks, four weeks
Method: Compounds of Formula I were evaluated using standard evaluation methodology as prescribed by the American Wood Preservers Association Standard AWPA E1-97, incorporated herein by reference, using a species of the destructive termite, Reticulitermes.
In this test replicate containers containing damp sand and southern yellow pine wood blocks treated with the compound are used. Termites are introduced into the test container and after four weeks the containers are disassembled and the wood blocks are evaluated for termite damage. Termite mortality is also evaluated.

Reticulitermes lalvipes = test: Treated filter pad and pine wood chip petri dish termite kill test; assay type: in vivo; details: 8 days after treatment, 13° C.
Method: Subterranean worker termites, Reticulitermes lalvipes, were purchased from Carolina Biological Supply Co. The insects were stored with their shipping material, decayed wood chips and moist paper towels, in an unlit growth chamber at 13° C. for three days prior to start of the test. This delay was to acclimate the termites to the test conditions as well as to eliminate weak individuals.
The compounds tested, 100 mg each, were dissolved in 10 mL of pure ethanol (dehydrated, 200 proof) to provide a solution of 10,000 ppm. The solution was serial diluted by 10× to achieve dilutions of 1,000, 100, 10, and 1 ppm. A pure cellulose fiber filter pad was soaked with 1 mL of each test sample and placed into a Falcon petri dish (50×9 mm sterile polystyrene). In addition, a pine wood chip, approximately 12×12×4 mm was dipped into the test solution for 30 seconds and placed on the filter paper. Solvent from the treated filters and wood chips was then allowed to evaporate for 24 hours. The next day, five termites were placed on the filter pad and the upper lid of the petri plate was secured. Three replications were used for each treatment.
The termites in the petri dishes were returned to the growth chamber at 13° C. The humidity was high enough to allow for condensation on the upper plate surface, which provided water for the termites. The petri dishes were briefly removed from the chamber at 2, 4, and 8 days after treatment to count the number of live termites. Data was expressed as the percentage of control (kill) of termites.

SMILES | Minimum Retention Preventing Termite Attack (Reticulitermes) [kg/m^3] | Control (% kill at 8 days) (Reticulitermes lalvipes; dose 1 ppm) [%] | Control (% kill at 8 days) (Reticulitermes lalvipes; dose 10 ppm) [%] | Control (% kill at 8 days) (Reticulitermes lalvipes; dose 100 ppm) [%] | Control (% kill at 8 days) (Reticulitermes lalvipes; dose 1,000 ppm) [%] | Control (% kill at 8 days) (Reticulitermes lalvipes; dose 10,000 ppm) [%]
CCOP(=S)(OCC)Oc1nc(Cl)c(Cl)cc1Cl [Comparative, chlorpyrifos, reference compound] | >0.160 | – | – | – | – | –
O=C(Nc1cc(Cl)c(Cl)c(Cl)c1)c1sc(C(F)(F)F)nc1C(F)(F)F [Compound 4] | – | 77 | 47 | 33 | 73 | 100
O=C(Nc1c(Br)cc(OC(F)(F)F)cc1Br)c1sc(C(F)(F)F)nc1C(F)(F)F [Compound 5] | 0.768 | – | – | – | – | –
O=C(Nc1ccc(Cl)c(Cl)c1Cl)c1sc(C(F)(F)F)nc1C(F)(F)F [Compound 6] | – | 33 | 27 | 53 | 100 | 100
O=C(Nc1cc(Cl)c(Cl)cc1Cl)c1sc(C(F)(F)F)nc1C(F)(F)F [Compound 7] | – | 73 | 60 | 87 | 100 | 100
O=C(Nc1ccc(Cl)cc1Cl)c1sc(C(F)(F)F)nc1C(F)(F)F [Compound 8] | – | 7 | 0 | 0 | 20 | 100
O=C(Nc1cc(Cl)ccc1Cl)c1sc(C(F)(F)F)nc1C(F)(F)F [Compound 9] | – | 27 | 40 | 20 | 53 | 100
O=C(Nc1c(Cl)cccc1Cl)c1sc(C(F)(F)F)nc1C(F)(F)F [Compound 10] | – | 7 | 0 | 0 | 67 | 73
O=C(Nc1cc(Cl)cc(Cl)c1)c1sc(C(F)(F)F)nc1C(F)(F)F [Compound 11] | – | 0 | 7 | 13 | 13 | 67
